Test results taken from ChEMBL document CHEMBL3046013, “Pyrithiobac reduces control of green foxtail (Setaria viridis) and bristly foxtail (Setaria verticillata) by propaquizafop” (2009).

Tests used:
Format in all cases: functional
Design in all cases: scale not given: the % may be the effect or the level left
[1] = system: Setaria verticillata; experiment: Herbicidal activity against Setaria verticillata assessed as reduction of fresh weight at 125 g ai/ha after 45 days in presence of 68 g ai/ha of pyrithiobac relative to control
[2] = system: Setaria viridis; experiment: Herbicidal activity against Setaria viridis (green foxtail) assessed as reduction of fresh weight at 75 g ai/ha after 45 days relative to control
[3] = system: Setaria verticillata; experiment: Herbicidal activity against Setaria verticillata assessed as reduction of fresh weight at 75 g ai/ha after 45 days in presence of 68 g ai/ha of pyrithiobac treated 1 day before compound challenge relative to control
[4] = system: Setaria viridis; experiment: Herbicidal activity against Setaria viridis (green foxtail) assessed as reduction of fresh weight at 125 g ai/ha after 45 days relative to control
[5] = system: Setaria verticillata; experiment: Herbicidal activity against Setaria verticillata assessed as reduction of fresh weight at 100 g ai/ha after 45 days relative to control
[6] = system: Setaria verticillata; experiment: Herbicidal activity against Setaria verticillata assessed as reduction of fresh weight at 75 g ai/ha after 45 days relative to control
[7] = system: Setaria viridis; experiment: Herbicidal activity against Setaria viridis (green foxtail) assessed as reduction of fresh weight at 75 g ai/ha after 45 days in presence of 68 g ai/ha of pyrithiobac and ammonium sulphate relative to control
[8] = system: Setaria verticillata; experiment: Herbicidal activity against Setaria verticillata assessed as reduction of fresh weight at 75 g ai/ha after 45 days relative to control in presence of ammonium sulphate
[9] = system: Setaria verticillata; experiment: Herbicidal activity against Setaria verticillata assessed as reduction of fresh weight at 75 g ai/ha after 45 days in presence of 68 g ai/ha of pyrithiobac treated 3 days after compound challenge relative to control
[10] = system: Setaria viridis; experiment: Herbicidal activity against Setaria viridis (green foxtail) assessed as reduction of fresh weight at 75 g ai/ha after 45 days in presence of 68 g ai/ha of pyrithiobac treated 1 day after compound challenge relative to control
[11] = system: Setaria verticillata; experiment: Herbicidal activity against Setaria verticillata assessed as reduction of fresh weight at 75 g ai/ha after 45 days in presence of 68 g ai/ha of pyrithiobac treated 3 days before compound challenge relative to control
[12] = system: Setaria verticillata; experiment: Herbicidal activity against Setaria verticillata assessed as reduction of fresh weight at 75 g ai/ha after 45 days in presence of 68 g ai/ha of pyrithiobac relative to control
[13] = system: Setaria viridis; experiment: Herbicidal activity against Setaria viridis (green foxtail) assessed as reduction of fresh weight at 100 g ai/ha after 45 days in presence of 68 g ai/ha of pyrithiobac relative to control
[14] = system: Setaria viridis; experiment: Herbicidal activity against Setaria viridis (green foxtail) assessed as reduction of fresh weight at 75 g ai/ha after 45 days relative to control in presence of ammonium sulphate
[15] = system: Setaria viridis; experiment: Herbicidal activity against Setaria viridis (green foxtail) assessed as reduction of fresh weight at 75 g ai/ha after 45 days in presence of 68 g ai/ha of pyrithiobac relative to control
[16] = system: Setaria verticillata; experiment: Herbicidal activity against Setaria verticillata assessed as reduction of fresh weight at 75 g ai/ha after 45 days in presence of 68 g ai/ha of pyrithiobac treated 1 day after compound challenge relative to control
[17] = system: Setaria viridis; experiment: Herbicidal activity against Setaria viridis (green foxtail) assessed as reduction of fresh weight at 150 g ai/ha after 45 days relative to control
[18] = system: Setaria viridis; experiment: Herbicidal activity against Setaria viridis (green foxtail) assessed as reduction of fresh weight at 100 g ai/ha after 45 days relative to control
[19] = system: Setaria verticillata; experiment: Herbicidal activity against Setaria verticillata assessed as reduction of fresh weight at 125 g ai/ha after 45 days relative to control
[20] = system: Setaria viridis; experiment: Herbicidal activity against Setaria viridis (green foxtail) assessed as reduction of fresh weight at 150 g ai/ha after 45 days in presence of 68 g ai/ha of pyrithiobac relative to control
[21] = system: Setaria verticillata; experiment: Herbicidal activity against Setaria verticillata assessed as reduction of fresh weight at 100 g ai/ha after 45 days in presence of 68 g ai/ha of pyrithiobac relative to control
[22] = system: Setaria viridis; experiment: Herbicidal activity against Setaria viridis (green foxtail) assessed as reduction of fresh weight at 75 g ai/ha after 45 days in presence of 68 g ai/ha of pyrithiobac treated 3 days before compound challenge relative to control
[23] = system: Setaria verticillata; experiment: Herbicidal activity against Setaria verticillata assessed as reduction of fresh weight at 150 g ai/ha after 45 days in presence of 68 g ai/ha of pyrithiobac relative to control
[24] = system: Setaria viridis; experiment: Herbicidal activity against Setaria viridis (green foxtail) assessed as reduction of fresh weight at 125 g ai/ha after 45 days in presence of 68 g ai/ha of pyrithiobac relative to control
[25] = system: Setaria verticillata; experiment: Herbicidal activity against Setaria verticillata assessed as reduction of fresh weight at 150 g ai/ha after 45 days relative to control
[26] = system: Setaria viridis; experiment: Herbicidal activity against Setaria viridis (green foxtail) assessed as reduction of fresh weight at 75 g ai/ha after 45 days in presence of 68 g ai/ha of pyrithiobac treated 1 day before compound challenge relative to control
[27] = system: Setaria viridis; experiment: Herbicidal activity against Setaria viridis (green foxtail) assessed as reduction of fresh weight at 75 g ai/ha after 45 days in presence of 68 g ai/ha of pyrithiobac treated 3 days after compound challenge relative to control

Q: With `CC(C)=NOCCOC(=O)[C@@H](C)Oc1ccc(Oc2cnc3cc(Cl)ccc3n2)cc1` [PROPAQUIZAFOP] as the molecule, how does the Activity [1] read?
A: Its Activity is 78%.

Q: And the Activity [2]?
A: Its Activity is 86%.

Q: And the Activity [3]?
A: Its Activity is 75%.

Q: And the Activity [4]?
A: The Activity was 97%.

Q: What about the Activity [5] of the same molecule?
A: Its Activity is 95%.

Q: What about the Activity [6] of the same molecule?
A: Its Activity is 92%.

Q: What about the Activity [7] of the same molecule?
A: The Activity was 57%.

Q: What about the Activity [8] of the same molecule?
A: The Activity was 94%.

Q: And the Activity [9]?
A: The Activity was 93%.

Q: And the Activity [10]?
A: Its Activity is 82%.

Q: And the Activity [11]?
A: The Activity was 81%.

Q: And the Activity [12]?
A: The Activity was 70%.

Q: And the Activity [13]?
A: The Activity was 59%.

Q: And the Activity [14]?
A: Its Activity is 89%.

Q: What about the Activity [15] of the same molecule?
A: The Activity was 53%.

Q: And the Activity [16]?
A: Its Activity is 90%.

Q: What about the Activity [17] of the same molecule?
A: The Activity was 99%.

Q: And the Activity [18]?
A: Its Activity is 91%.

Q: What about the Activity [19] of the same molecule?
A: The Activity was 99%.

Q: What about the Activity [20] of the same molecule?
A: The Activity was 72%.

Q: What about the Activity [21] of the same molecule?
A: Its Activity is 73%.

Q: What about the Activity [22] of the same molecule?
A: Its Activity is 66%.

Q: What about the Activity [23] of the same molecule?
A: Its Activity is 83%.

Q: What about the Activity [24] of the same molecule?
A: The Activity was 66%.

Q: What about the Activity [25] of the same molecule?
A: Its Activity is 100%.

Q: And the Activity [26]?
A: Its Activity is 56%.

Q: And the Activity [27]?
A: Its Activity is 85%.
